pID50 data for 19 molecules are collected here from ChEMBL document CHEMBL1250491, “Multivariate QSAR study on the antimutagenic activity of flavonoids against 3-NFA on Salmonella typhimurium TA98” (2010).

For this test, the system named is Salmonella typhimurium. As to the kind of experiment: Antimutagenic activity in Salmonella Typhimurium TA98 assessed as inhibition of 3-nitrofluoranthene-induced mutation by Ames test. The format is functional, Salmonella enterica subsp. enterica serovar Typhimurium.

Take `COc1ccccc1-c1cc(=O)c2ccccc2o1`: the pID50 was 5.046.

Take `COc1ccc2oc(-c3ccccc3)c(O)c(=O)c2c1`: the pID50 is given as 5.62.

Regarding `O=c1cc(-c2ccccc2)oc2cccc(O)c12` [5-HYDROXYFLAVONE], the pID50 came to 5.357.

Turning to `O=c1cc(-c2ccccc2)oc2ccc(O)cc12` [6-HYDROXYFLAVONE], the pID50 is 6.699.

Take `O=c1cc(-c2ccccc2)oc2cc(O)ccc12` [7-HYDROXYFLAVONE]: the pID50 stood at 5.456.

`O=c1cc(-c2ccc(O)cc2)oc2cc(O)cc(O)c12` [APIGENIN]: the pID50 was found to be 7.

As for `O=c1cc(-c2ccc(O)cc2)oc2cc(O[C@@H]3O[C@H](CO)[C@@H](O)[C@H](O)[C@H]3O)cc(O)c12` [APIGETRIN], the pID50 came out at 5.62.

Consider `O=c1cc(-c2ccccc2)oc2cc(O)cc(O)c12` [CHRYSIN], for which the pID50 came to 6.

Regarding `O=c1c(O)c(-c2ccccc2)oc2ccccc12` [FLAVONOL], the pID50 is 6.538.

As for `O=c1cc(-c2ccc(O)c(O)c2)oc2cc(O[C@@H]3O[C@H](CO)[C@@H](O)[C@H](O)[C@H]3O)cc(O)c12` [GALUTEOLIN], the pID50 was found to be 5.092.

With `COc1ccc([C@@H]2CC(=O)c3c(O)cc(O)cc3O2)cc1O` [HESPERETIN], the pID50 stood at 6.097.

As for `COc1cc(-c2oc3cc(O)cc(O)c3c(=O)c2O)ccc1O` [ISORHAMNETIN], the pID50 was 6.097.

Turning to `O=c1c(O)c(-c2ccc(O)cc2)oc2cc(O)cc(O)c12` [KAEMPFEROL], the pID50 stood at 6.538.

Consider `O=c1c(O)c(-c2ccc(O)cc2O)oc2cc(O)cc(O)c12` [MORIN], for which the pID50 came to 6.155.

For `O=c1c(O)c(-c2cc(O)c(O)c(O)c2)oc2cc(O)cc(O)c12` [MYRICETIN], the pID50 is given as 6.222.

For `O=C1C[C@@H](c2ccc(O)cc2)Oc2cc(O)cc(O)c21` [NARINGENIN], the pID50 stood at 5.886.

`O=c1c(O)c(-c2ccc(O)c(O)c2)oc2cc(O)cc(O)c12` [QUERCETIN]: the pID50 worked out at 5.143.

In the case of `C[C@@H]1O[C@@H](OC[C@H]2O[C@@H](Oc3c(-c4ccc(O)c(O)c4)oc4cc(O)cc(O)c4c3=O)[C@H](O)[C@@H](O)[C@@H]2O)[C@H](O)[C@H](O)[C@H]1O` [RUTIN], the pID50 was 5.022.

As to `COc1ccc(-c2cc(=O)c3c(OC)c(OC)c(OC)c(OC)c3o2)cc1` [TANGERETIN], the pID50 is 4.967.
